This note sets out measurements from patent US9037228B2, “Method and system for detecting electrophysiological changes in pre-cancerous and cancerous tissue” (Epi-Sci, LLC, priority 2002, dated 2015).

The test system of test [1] is human prostatic epithelial cells. The settings on record: cells grown in presence of DHT. An excerpt:
FIG. 13 represent measurements of cell membrane potential (ψ) in human prostatic epithelial cells under different growth conditions. A Voltage-sensitive FRET (fluorescent energy transfer) probe was used for potentiometric ratio measurements. It has two fluorescent components: CC2-DMPE (Coumarin) and DISBAC2(3) (Oxonol). The oxonol distributes itself on opposite sides of the cell membrane in a Nernstian manner according to the ψ. The voltage sensitive distribution of oxonol is transduced through a ratiometric fluorescence signal via the coumarin which is bound to the outside surface of the cell membrane thereby amplifying the fluorescence. Measurements were made using a fluorescence microscope and a digital imaging system. The ratio measurements are calibrated using Gramicidin D to depolarize the cell membrane and then varying the external K^+-concentration. The calibrated cell membrane potential in mV is depicted on the y-axis.
The filled bars indicates the ψ of exponentially growing prostatic epithelial cells before they reach confluence, whereas the open bars depict the ψ of the cells once they reach confluence and cell growth slows.

In test [2] the test system is human breast epithelial cells. The test can be described thus: Cell membrane potential (ψ) in human breast epithelial cells, potentiometric fluorescent probe. Type of test: cell-based. On the procedure: Measurements were made using a potentiometric fluorescent probe, and ratiometric measurements, which are calibrated using valinomycin and K^+-gradients. ψs were measured in the presence (closed circles) and absence (open circles) of estradiol (the active metabolite of estrogen). Each symbol is the mean measurement. The upper error bar is the standard error of the mean, and the lower error bar is the 95% confidence level for the observations. The addition of estrogen to cultured breast epithelial cells results in an instantaneous increase in ψ (data not shown) as well as transepithelial potential see FIG. 10. Transepithelial potential (VT) of an epithelium is the sum of the apical (luminal) cell membrane potential (VA) and the basolateral (abluminal) cell membrane potential (VBL). Therefore VT=VA+VBL(changes in VA and VBL will therefore alter VT or transepithelial potential). […] Malignant and transformed cells have a ψ of between −31 and −35 mV in the absence of estradiol and approximately […] when estradiol is present in the culture medium.

In test [3] the test system is benign and malignant human breast epithelial cells. The test can be described thus: Transepithelial potential (TEP) of breast epithelial monolayers in modified Ussing chambers, voltage clamp. The test is classed as cell-based. How it is done:
It should be noted that the instantaneous response, illustrated in FIG. 10, is greater in malignant epithelia, whereas the chronic or sustained exposure to estradiol results in a lower increase in TEP (transepithelial electropotential) in malignant cells. Concurrent measurement of surface electropotential and impedance allow the more accurate diagnosis of cancer. […] The cells were grown as monolayers on Millipore filters and grew to confluence in 7 to 10 days. The epithelia were then mounted in modified Ussing chambers and the TEP was measured using a voltage clamp. Increasing doses of estradiol between 0 and 0.8 μM were added (x-axis). The transepithelial potential was measured after each addition and the TEP was measured (y-axis). The different dose response is apparent for benign and malignant epithelia. Malignant epithelia have a lower TEP but undergo an instantaneous increase in TEP of approximately 9 mV (becomes more electronegative and reaches a level of <6 mV) after exposure to only 0.1 μM estradiol and then depolarize to approximately −2 mV with increasing doses of estradiol up to about 0.5 μM.

A further test relates to breast tissue. The test can be described thus: Electrophysiological (TEP) response of breast tissue to estradiol given into the duct or sublingually. Type of test: in vivo. As to conditions: into the duct or sublingual 17-β-estradiol (4 mg). On the procedure: In one method of present invention, estradiol is introduced directly into the duct or systematically following sublingual administration of 17-β-estradiol (4 mg). This agent produces a rapid response, which peaks at approximately 20 minutes. The electrophysiological response depends, in part, on the stage of the patient's menstrual cycle, as well as the condition of the breast tissue. Specifically, in normal breast tissue, a rise in TEP will occur during the follicular (or early) phase. In pre-cancerous or cancerous tissue, this response is abrogated.

The next test relates to colonic mucosa. The experiment in a line: TEP response of colonic mucosa to topically applied amiloride. An excerpt: The measured TEP decreases in response to a topically applied amiloride (a sodium channel blocker) in normal colonic mucosa. This response is reduced by approximately 50% in pre-cancerous mucosa or by greater than 75% in cancerous mucosa. In addition, the loss in sodium conductance results in an increase of impedance of the surface epithelium. This ion transport alteration may be measured by determining the change in TEP as well as the basal impedance. In abnormal pre-cancerous or cancerous tissue, the TEP is lower, the response of the TEP to amiloride is less, and the increase in impedance (observed in normal colon in response to amiloride) is less in abnormal pre-cancerous or cancerous tissue. Similar pharmacological agents may be introduced that alter the effect of chloride or potassium ion transport, which affect abnormal pre-cancerous or cancerous tissue in a different manner than in normal colon tissue.

Test [4] relates to apical K+ channels of human colonic mucosa. As to conditions: normal colon, 30 mM mucosal TEA after elevated serosal K+, 0.1 mM amiloride present.
Description: The potassium permeability of the apical membrane of human colonic mucosa (P^Ka) was determined in surgical specimens of controls and grossly normal-appearing mucosa obtained 10-30 cm proximal to colorectal adenocarcinomas. The mucosa was mounted in Ussing chambers and the basolateral membrane resistance and voltage were nullified by elevating the K^+ in the serosal bathing solution. The apical sodium (Na^+) conductance was blocked with 0.1 mM amiloride. This protocol reduces the equivalent circuit model of the epithelium to an apical membrane conductance and electromotive force in parallel with the paracellular pathway as has been verified by microelectrode studies. […] The serosal bath was remained constant at 125 mM [K].
Where [5] appears, read: malignant epithelia, after exposure to 0.1 μM estradiol.

Like-named read-outs stand apart in the source and are kept apart here.

On to `C[C@]12CCC(=O)C[C@@H]1CC[C@@H]1[C@@H]2CC[C@]2(C)[C@@H](O)CC[C@@H]12` [DHT, dihydroxytestosterone], for which the “effect on cell membrane potential ψ” value in test [1] (exponential growth) is “slightly hyperpolarized”; in test [1] (on reaching confluence), “depolarize”.

On to `C[C@]12CC[C@@H]3c4ccc(O)cc4CC[C@H]3[C@@H]1CC[C@@H]2O` [estradiol, 17-β-estradiol], for which the “cell membrane potential ψ” value in test [2] (benign breast epithelial cells, estradiol added to the culture media (about −50 mV without)) is on record as around −70 mV. Moreover, the “cell membrane potential ψ” value in test [2] (malignant and transformed cells, estradiol present in culture medium (−31 to −35 mV without)) is given as “approximately 50 mV”. In addition, the “estradiol dose at which TEP response peaks” value in test [3] (benign epithelia, then remains persistently elevated) is around 0.3 µM. Moreover, in test [3] (setting [5]), the TEP level reached is below 6 mV and the “instantaneous increase in TEP” value is recorded as “approximately 9 mV”. Besides, the TEP after depolarization entry in test [3] (malignant epithelia, increasing doses of estradiol up to about 0.5 μM) is given as “approximately −2 mV”. Further, in the test on breast tissue, the “time of peak electrophysiological response” value is given as “approximately 20 minutes”.

On to `N=C(N)NC(=O)c1nc(Cl)c(N)nc1N` [amiloride], for which the “reduction of the TEP response to amiloride” value with colonic mucosa (cancerous mucosa versus normal) is “greater than 75%”; in the test on colonic mucosa (pre-cancerous mucosa versus normal), “approximately 50%”. In the test on colonic mucosa (normal colonic mucosa, topically applied), the “effect on measured TEP” value is “decreases”.

Consider `CC[N+](CC)(CC)CC` [TEA, tetraethyl ammonium], for which the “effect on Isc” value in test [4] is listed as “abrupt increase in Isc”.
